This is an account of results in patent publication US20050192227A1, “Method for reducing the risk of cancer” (priority 1999, published 2005).

Series [1] concerns MCF-7. Conditions: ER+ breast cancer cell line MCF-7, in vitro; cited from earlier work.
The test system of series [2] is detectable tumors. The series can be described thus: Clinical trial of rhPTH(1-34) in postmenopausal women: incidence of cancer (patients with detectable tumors). The format is in vivo, human. Conditions: for number of patients with detectable tumors, breast carcinoma: 17-23 months, placebo 7; for number of patients with detectable tumors, skin carcinoma: placebo 5; for number of patients with detectable tumors, all cancers except breast carcinoma: placebo 16; for number of patients with detectable tumors, all cancers: placebo 21. How it is done:
• Number of Subjects: rhPTH(1-34): 1093 enrolled, 848 finished. • Placebo: 544 enrolled, 447 finished. • Diagnosis and Inclusion Criteria: Women ages 30 to 85 years, postmenopausal for a minimum of 5 years, with a minimum of one moderate or two mild atraumatic vertebral fractures. • Dosage and Administration: Test Product (blinded) • rhPTH(1-34): 20 μg/day, given subcutaneously • rhPTH(1-34): 40 μg/day, given subcutaneously • Reference Therapy (blinded) • Placebo study material for injection • Duration of Treatment: rhPTH(1-34): 17-23 months (excluding 6-month run-in phase) • Placebo: 17-23 months (excluding 6-month run-in phase)
Criteria for Evaluation: Spine x-ray; serum biological markers (calcium, bon-specific alkaline phosphatase, procollagen I carboxy-terminal propeptide); urine markers (calcium, N-telopeptide, free deoxypyridinoline); 1,25-dihydroxyvitanin D; bone mineral density: spine, hip, wrist, and total body; height; population pharmacokinetics; bone biopsy (selected study sites).
Table 1 illustrates data showing the reduction in the number of patients having detectable tumors upon treatment with PTH.

The subject of series [3] is biochemical bone markers. Description: Applicant's dose studies in human subjects: changes in biochemical bone markers. In kind it is in vivo. How it is done:
(§1) Therefore, for reducing risk on cancer in men or women with hPTH(1-34) according to the present invention, preferably one should use a daily dose greater than about 6 μg, more preferably at least about 15 μg. […] Therefore, any daily dose of hPTH(1-34) in the range of greater than about 6 μg to at least about 40 μg would be effective for reduction of the risk of cancer, according to the present method of using this form of parathyroid hormone. […] Accordingly, the present invention provides a method for reducing the risk of cancer in a human subject at risk thereof, comprising administering to the subject a parathyroid hormone. Preferably, the parathyroid hormone consists of amino acid sequence 1-34 of human parathyroid hormone. This hormone may be administered with or without concurrent administration of an antiresorptive agent other than vitamin D or calcium. Preferably, the hormone is administered in a daily dose in the range of about 15 μg to about 40 μg, for at least about 12 months. In this method for reducing the risk of cancer, the hormone may be administered for longer periods of several years (e.g., up to 3 years as in osteoporotic patients), including for the remaining life of a human subject identified as having a high risk of cancer.

The nature of series [4]: Effectiveness of daily doses against osteoporosis in men and women. Conditions: daily doses of 20 μg and 40 μg compared. The format is in vivo, human.
Series [5] can be described thus: Undesirable side effects of daily doses in human subjects. The format is in vivo. Conditions: daily dose of about 20 μg compared with about 40 μg. How it is done: as §1

Regarding PTHrP: PTH-related peptide/protein, the “response of MCF-7 cells to PTHrP” value in series [1] is recorded as “proliferates”.
For rhPTH(1-34), the “number of patients with detectable tumors, breast carcinoma” value is reported as 1 in series [2] (PTH-20 (20 μg/day s.c., N = 541), p=0.017) and 1 in series [2] (PTH-40 (40 μg/day s.c., N = 522), p=0.017). Also, the “number of patients with detectable tumors, skin carcinoma” value in series [2] (PTH-20 (20 μg/day s.c., N = 541), p=0.532) worked out at 2; in series [2] (PTH-40 (40 μg/day s.c., N = 522), p=0.532), 4. The “number of patients with detectable tumors, all cancers except breast carcinoma” value is on record as 7 in series [2] (PTH-20 (20 μg/day s.c., N = 541)) and 10 in series [2] (PTH-40 (40 μg/day s.c., N = 522)). Further, the “number of patients with detectable tumors, all cancers” value was 8 in series [2] (PTH-20 (20 μg/day s.c., N = 541), p=0.03) and 11 in series [2] (PTH-40 (40 μg/day s.c., N = 522), p=0.03). The “percentage of patients with any form of detectable cancer” value in series [2] (all PTH-treated patients (20 and 40 μg/day pooled) vs. placebo 3.86%, p=0.03) was found to be 1.79%. Moreover, the “percentage of patients with skin carcinoma” value in series [2] (all PTH-treated patients pooled vs. placebo 0.919%, p=0.532) worked out at 0.564%. Further, the “percentage of patients with breast carcinoma” value in series [2] (all PTH-treated patients pooled vs. placebo 1.29%, p=0.017) worked out at 0.188%. For the same substance, in series [2] (all PTH-treated patients pooled vs. placebo 2.94%), the “percentage of patients with any form of detectable cancer, excluding breast carcinoma” value is recorded as 1.60%. Further, the “lowest tested dose found to be biologically active, as indicated by detectable changes in biochemical bone markers” value in series [3] was “about 15 μg”. Further, in series [3] (6 μg dose), the “effects on biochemical bone markers” value was “no significant effects”. In addition, in series [4], the effectiveness against osteoporosis result was “similarly effective”. Besides, the undesirable side effects entry in series [5] is given as “fewer undesirable side effects”.
